Data from article PMC8474116, “Discovery of Novel Acetamide-Based Heme Oxygenase-1 Inhibitors with Potent In Vitro Antiproliferative Activity” (Journal of Medicinal Chemistry, 2021).

What was measured:
HO-1 [1] = target: T1, HO-1 (Rattus norvegicus, UniProt P06762); assay: HO-1 enzymatic activity, rat spleen microsomal fraction (bilirubin formation); type: biochemical; conditions: for IC50 / HO-1 inhibitory activity (in words): rat spleen microsomal fraction; for IC50: mean of triplicate ± SD; for SI (HO-2/HO-1): ratio of HO-2 and HO-1 IC50
T1 construct: selected to use the most native (i.e., closest to in vivo) forms of HO-1 and HO-2; from tissue; host or cells: rat spleen (male Sprague-Dawley), microsomal fraction
T1 sequence (P06762 1-289): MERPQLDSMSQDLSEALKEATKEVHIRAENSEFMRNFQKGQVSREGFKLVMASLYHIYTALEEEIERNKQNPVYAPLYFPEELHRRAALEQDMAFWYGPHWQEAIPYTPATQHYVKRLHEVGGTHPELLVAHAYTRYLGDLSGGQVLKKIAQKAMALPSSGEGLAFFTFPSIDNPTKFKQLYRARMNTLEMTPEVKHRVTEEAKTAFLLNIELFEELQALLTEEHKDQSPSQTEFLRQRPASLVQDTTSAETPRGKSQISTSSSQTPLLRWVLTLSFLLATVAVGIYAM
Description: (§1) HO-1 and HO-2 were obtained, respectively, from the rat spleen and brain as the microsomal fraction prepared by differential centrifugation; the dominance of HO-1 protein in the rat spleen and HO-2 in the rat brain has been well documented.[24] These particular microsomal preparations were selected to use the most native (i.e., closest to in vivo) forms of HO-1 and HO-2. Spleen and brain (Sprague-Dawley rats) microsomal fractions were prepared according to the procedure outlined by Ryter et al.[2] The experiments reported in the present paper complied with the current Italian law and met the guidelines of the Institutional Animal Care and Use Committee of the Ministry of Health (Directorate General for Animal Health and Veterinary Medicines, Italy) “Dosing of enzymatic activities in rat microsomes” (2018–2022), project code 02769.N.VLY. The experiments were performed in male Sprague-Dawley albino rats (150 g body weight and age 45 d). They had free access to water and were kept at room temperature with a natural photoperiod (12 h light–12 h dark cycle). For measuring HO-1 and HO-2 activities, each rat was sacrificed and their spleen and brain were excised and weighed. A homogenate (15%, w/v) of spleens and brains pooled from four rats was prepared in ice-cold HO-homogenizing buffer (50 mM Tris buffer, pH 7.4, containing 0.25 M sucrose) using a Potter–Elvehjem homogenizing system with a Teflon pestle. The microsomal fraction of rat spleen and brain homogenate was obtained by centrifugation at 10 000g for 20 min at 4 °C, followed by centrifugation of the supernatant at 100 000g for 60 min at 4 °C. The 100 000g pellet (microsomes) was resuspended in 100 mM of potassium phosphate buffer, pH 7.8, containing 2 mM MgCl2 with a Potter–Elvehjem homogenizing system. The rat spleen and brain microsomal fractions were divided into equal aliquots, placed into microcentrifuge tubes, and stored at −80 °C for up to 2 months.
(§2) Liver cytosol has been used as a source of biliverdin reductase. Rat liver was perfused through the hepatic portal vein with cold 0.9% NaCl; then, it was cut and flushed with 2 × 20 mL of ice-cold PBS to remove all of the blood. Liver tissue was homogenized in 3 volumes of a solution containing 1.15% KCl w/v and Tris buffer 20 mM, pH 7.8 on ice. Homogenates were centrifuged at 10 000g for 20 min at 4 °C. The supernatant was decanted and centrifuged at 100 000g for 1 h at 4 °C to sediment the microsomes. The 100 000g supernatant was saved and then stored in small amounts at −80 °C after its protein concentration was measured.
(§3) The HO-1 and HO-2 activities were determined by measuring the bilirubin formation using the difference in absorbance at 464–530 nm, as described by Ryter et al.[2] Reaction mixtures (500 μL) consisted of 20 mM of Tris–HCl, pH 7.4, (1 mg/mL) microsomal extract, 0.5–2 mg/mL of biliverdin reductase, 1 mM of NADPH, 2 mM of glucose 6-phosphate (G6P), 1 U of G6P dehydrogenase, 25 μM of hemin, and 10 μL of DMSO (or the same volume of DMSO solution of test compounds to a final concentration of 100, 10, and 1 μM). Incubations were carried out for 60 min at 37 °C in a circulating water bath in the dark. Reactions were stopped by adding the same volume of chloroform. After recovering the chloroform phase, the amount of bilirubin formed was measured with a double-beam spectrophotometer as OD464–530 nm (extinction coefficient, 40 mM/cm^–1 for bilirubin). One unit of the enzyme was defined as the amount of enzyme catalyzing the formation of 1 nmol of bilirubin/mg protein/h.

U87MG cells = assay: MTT cell viability assay, U87MG; type: cell-based, human; conditions: 48 h, at both concentrations 1 and 10 μM
Description: (§4) Experiments were performed on human GBM cell lines U87MG (ATCCC number #HTB-14) and A172 (ATCCC #CRL-1620) on DU145 (ATCC HTB-81) and human lung adenocarcinoma A549 (ATCC CCL-185-LUC2). All cell lines were obtained from the American Type Culture Collection (ATCC, Rockville, MD). Cells were grown in Dulbecco’s modified Eagle’s medium (DMEM) supplemented with 10% of heat-inactivated fetal bovine serum (FBS), 100 U/mL of penicillin, and 100 μg/mL of streptomycin (Sigma-Aldrich, Steinheim, Germany). Cells were incubated at 37 °C in a humidified atmosphere with 5% CO2.
(§5) The effect of selected compounds 7i and 7l–p on cell viability was assessed by performing an MTT assay. Cells were seeded into 96-well plates at a density of 7 × 10^3 cells/well in 100 μL of culture medium. After 24 h, cells were treated with selected compounds at three different concentrations (1 μM, 10 μM, and 50 μM) for 48 h. Following treatments, 0.5 mg/mL of 3-[4,5-dimethylthiazol-2-yl]-2,5-diphenyltetrazolium bromide (MTT) (Sigma-Aldrich) was added to each well and incubated for 4 h at 37 °C. Finally, dimethyl-sulfoxide (DMSO) was used to dissolve formazan salts, and absorbance was measured at 570 nm in a microplate reader (Biotek Synergy-HT). Eight replicate wells were used for each group.

A172 cells = assay: MTT cell viability assay, A172; type: cell-based, human; conditions: 48 h
Description: as §4, §5

HO-1 [2] = assay: HO-1 protein expression by Western blot, A172; type: cell-based, human; conditions: A172, 10 μM, 48 h
Description: Proteins were extracted from total cell lysate, as previously described.[61] Briefly, cell lines were added to a buffer containing 20 mM Tris (pH 7.4), 2 mM EDTA, 0.5 mM EGTA, 50 mM mercaptoethanol, and […] sucrose supplemented with phosphatase and protease inhibitor cocktails (Roche Diagnostics, Monza, Italy). Subsequently, protein samples were sonicated twice for 20′ by using an ultrasonic probe, followed by centrifugation at 10 000g for 10 min at 4 °C. Sample proteins (30 μg) were diluted in 4X NuPage LDS sample buffer (Invitrogen, NP0007), heated at 80 °C for 5 min, and then separated on a Biorad Criterion XT 4–15% Bis–Tris gel (BIO-RAD) by electrophoresis and then transferred to a PVDF membrane (BIO-RAD). Blots were blocked using the Odyssey Blocking Buffer (LI-COR Biosciences) and probed with appropriate antibodies: HO-1 antibody (GeneTex GTX101147), goat polyclonal anti-VEGF (cat. no. sc-1836, Santa Cruz Biotechnology), and rabbit polyclonal anti-β-tubulin (cat n.sc-9104, Santa Cruz Biotechnology) and β-actin antibody (GeneTex GTX109639).
The secondary antibodies goat antirabbit (Odyssey, #926-32211; Odyssey #926-68021) and donkey antigoat IRDye 800CW (cat #926-32214; Li-Cor Biosciences) were used at 1:7000. Blots were scanned, and densitometric analysis was performed with the Odyssey Infrared Imaging System. Values were normalized to β-actin and to β-tubulin.

HO-2 = target: T2, HO-2 (Rattus norvegicus, UniProt P23711); assay: HO-2 enzymatic activity, rat brain microsomal fraction (bilirubin formation); type: biochemical; conditions: mean of triplicate ± SD
T2 construct: selected to use the most native (i.e., closest to in vivo) forms of HO-1 and HO-2; from tissue; host or cells: rat brain (male Sprague-Dawley), microsomal fraction
T2 sequence (P23711 1-315): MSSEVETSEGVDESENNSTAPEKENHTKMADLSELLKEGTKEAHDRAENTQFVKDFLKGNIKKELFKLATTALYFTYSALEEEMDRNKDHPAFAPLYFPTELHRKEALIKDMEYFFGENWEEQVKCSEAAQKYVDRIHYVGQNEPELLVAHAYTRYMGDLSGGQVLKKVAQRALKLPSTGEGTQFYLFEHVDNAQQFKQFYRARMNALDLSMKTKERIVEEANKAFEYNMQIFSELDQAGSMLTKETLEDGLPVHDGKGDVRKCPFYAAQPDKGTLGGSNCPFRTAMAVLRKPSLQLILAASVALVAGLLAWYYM
Description: as §1, §2, §3

DU145 cells = assay: MTT cell viability assay, DU145; type: cell-based; conditions: 48 h, 1 μM and 10 μM
Description: as §4, §5

A549 cells = assay: MTT cell viability assay, A549; type: cell-based, human; conditions: 48 h, 10 μM
Description: as §4, §5

Compound	IC50 (HO-1 [1])	melting point	other results
O=C(Cn1ccnc1)Nc1ccccc1 [7a]	110 ± 3.1 µM	–	–
CN(C(=O)Cn1ccnc1)c1ccccc1 [7b, 2-(1H-Imidazol-1-yl)-N-methyl-N-phenylacetamide]	–	117 to 119 °C	–
O=C(Cn1ccnc1)Nc1cccc(Br)c1 [7c, N-(3-Bromophenyl)-2-(1H-imidazol-1-yl)acetamide]	35.7 ± 1.2 µM	158 to 162 °C	–
O=C(Cn1ccnc1)Nc1ccc(I)cc1 [7d, 2-(1H-Imidazol-1-yl)-N-(4-iodophenyl)acetamide]	8.34 ± 0.21 µM	222 to 225 °C	–
CN(C(=O)Cn1ccnc1)c1ccc(I)cc1 [7e, 2-(1H-Imidazol-1-yl)-N-(4-iodophenyl)-N-methylacetamide]	96.1 ± 1.44 µM	–	–
O=C(Cn1ccnc1)NCc1ccccc1 [7f]	57.6 ± 2.38 µM	–	fold decrease in potency with respect to 4 (HO-1) (HO-1 [1]): 2 fold
CN(Cc1ccccc1)C(=O)Cn1ccnc1 [7g, N-Benzyl-2-(1H-imidazol-1-yl)-N-methylacetamide]	50.6 ± 1.84 µM	106 to 111 °C	–
O=C(Cn1ccnc1)N(Cc1ccccc1)Cc1ccccc1 [7h, N,N-Dibenzyl-2-(1H-imidazol-1-yl)acetamide]	64.8 ± 1.56 µM	99 to 102 °C	–
CN(C(=O)Cn1ccnc1)C(c1ccccc1)C1CCCC1 (stereo not drawn) [7j, N-(Cyclopentyl(phenyl)methyl)-2-(1H-imidazol-1-yl)-N-methylacetamide]	11.4 ± 0.97 µM	134 to 136 °C	fold less potent than compound 7i (HO-1) (HO-1 [1]): 13 fold
CN(C(=O)Cn1ccnc1)C(c1ccccc1)C1CCCCC1 (stereo not drawn) [7k, N-(Cyclohexyl(phenyl)methyl)-2-(1H-imidazol-1-yl)-N-methylacetamide]	26.8 ± 1.61 µM	130 to 133 °C	fold less potent than compound 7i (HO-1) (HO-1 [1]): 30 fold
CN(C(=O)Cn1ccnc1)C(c1ccccc1)c1cccc(Br)c1 (stereo not drawn) [7m, N-((3-Bromophenyl)(phenyl)methyl)-2-(1H-imidazol-1-yl)-N-methylacetamide]	0.9 ± 0.03 µM	82 to 83 °C	cell viability reduction (U87MG cells): more than 30%; HO-1 vs HO-2 selectivity (in words) (HO-1 [1]): superimposable HO-1 and HO-2 IC50 values; SI (HO-2/HO-1) (HO-1 [1]): 1.2; cell viability reduction (in words) (A172 cells; all tested concentrations (1, 10, 50 μM)): weak activity; HO-1 protein expression (in words) (HO-1 [2]): enhanced its levels; IC50 (HO-2): 1.1 ± 0.04 µM
CN(C(=O)Cn1ccnc1)C(c1ccccc1)c1ccc(OCc2ccc(Br)cc2)cc1 (stereo not drawn) [7p, N-((4-((4-Bromobenzyl)oxy)phenyl)(phenyl)methyl)-2-(1H-imidazol-1-yl)-N-methylacetamide]	8 ± 0.39 µM	120 to 121 °C	cell viability reduction (in words) (DU145 cells): had efficacies; cell viability reduction (U87MG cells): around 20%; fold less potent than 7o (HO-1) (HO-1 [1]): about 6.5 fold; fold less potent than compound 7i (HO-1) (HO-1 [1]): ~9 fold; fold more selective for the inducible isoform (HO-1 over HO-2) (HO-1 [1]): 3 fold; SI (HO-2/HO-1) (HO-1 [1]): 3.1; cell viability reduction (in words) (A172 cells; 10 μM): milder activity; cell viability reduction (in words) (A172 cells; 50 μM): only at 50 μM; IC50 (HO-2): 24.71 ± 0.14 µM; cell viability reduction (in words) (A549 cells): weak effect
CC(=O)N(CCCn1ccnc1)Cc1ccccc1 [11a, N-(3-(1H-Imidazol-1-yl)propyl)-N-benzylacetamide]	224 ± 8.1 µM	–	HO-1 inhibitory activity (in words) (HO-1 [1]): almost inactive
O=C(c1ccccc1)N(CCCn1ccnc1)Cc1ccccc1 [11b, N-(3-(1H-Imidazol-1-yl)propyl)-N-benzylbenzamide]	31 ± 1.74 µM	–	HO-1 inhibitory activity (in words) (HO-1 [1]): comparable to the hit compound 4
O=C(Cc1ccccc1)N(CCCn1ccnc1)Cc1ccccc1 [11c, N-(3-(1H-Imidazol-1-yl)propyl)-N-benzyl-2-phenylacetamide]	32 ± 1.48 µM	–	HO-1 inhibitory activity (in words) (HO-1 [1]): comparable to the hit compound 4
